Among the data in patent US20090036449A1, “Indazolesquaric Acid Derivatives as Chk1, Chk2 and Sgk Inhibitors” (priority 2005, published 2009) are IC50 values, retold here.

The target in this assay is T1, SGK1 protein kinase (Homo sapiens, UniProt O00141).
T1 sequence (O00141 1-431): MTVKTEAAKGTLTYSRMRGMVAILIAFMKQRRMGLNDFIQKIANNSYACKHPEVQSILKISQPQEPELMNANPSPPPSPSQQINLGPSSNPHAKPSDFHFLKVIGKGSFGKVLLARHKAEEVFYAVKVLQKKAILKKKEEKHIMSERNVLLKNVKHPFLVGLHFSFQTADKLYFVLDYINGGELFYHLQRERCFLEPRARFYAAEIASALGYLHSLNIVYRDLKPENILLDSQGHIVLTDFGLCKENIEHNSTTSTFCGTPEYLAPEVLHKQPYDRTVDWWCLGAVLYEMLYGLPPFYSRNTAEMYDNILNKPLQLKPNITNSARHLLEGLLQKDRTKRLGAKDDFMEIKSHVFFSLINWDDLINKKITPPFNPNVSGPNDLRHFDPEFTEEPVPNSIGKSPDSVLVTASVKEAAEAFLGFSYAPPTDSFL
Description: SGK inhibition (filter binding method, analogously to CHK1, CHK2). Type of assay: biochemical. The procedure: 5-20 mU of CHK1 kinase (diluted in 20 mM MOPS pH7.5, 1 mM EDTA, 0.1% β-mercaptoethanol, 0.01% Brij-35, 5% glycerol, 1 mg/ml of BSA) are incubated for 30 min at room temperature in the presence of 30-200 μM CHKtide in 25.5 μl in 1-fold reaction buffer (8 mM MOPS pH7, 0.2 mM EDTA, 10 mM magnesium acetate, 0.02 mM ^33P-ATP [500-1000 cpm/pmol]). The reaction is stopped using 5 μl of 0.5 M ortho-phosphoric acid and filtered through P81 filter plates. After the filter plates have been washed a number of times, the bound radioactivity is determined in a scintillation counter.
5-20 mU of CHK2 kinase (diluted in 20 mM MOPS pH7.5, 1 mM EDTA, 0.1% β-mercaptoethanol, 0.01% Brij-35, 5% glycerol, 1 mg/ml of BSA) are incubated for 30 min at room temperature in the presence of 30-200 μM CHKtide ([…]) in 25.5 μl in 1-fold reaction buffer (8 mM MOPS pH7, 0.2 mM EDTA, 10 mM magnesium acetate, 0.02 mM ^33P-ATP [500-1000 cpm/pmol]). The reaction is stopped using 5 μl of 0.5 M ortho-phosphoric acid and filtered through P81 filter plates. After the filter plates have been washed a number of times, the bound radioactivity is determined in a scintillation counter.
The inhibition of SGK1 protein kinase can be determined in the filter binding method (analogously to CHK1, CHK2).
`O=C(Nc1n[nH]c2ccc(Nc3c(NCc4cccc(O)c4)c(=O)c3=O)cc12)c1ccccc1` [Compound 40, 3-(3-benzoylamino-1H-indazol-5-ylamino)-4-(3-hydroxybenzylamino)cyclobut-3-ene-1,2-dione] had an IC50 of 10 nM. On to `COc1cccc(CNc2c(Nc3ccc4[nH]nc(NC(=O)c5ccccc5)c4c3)c(=O)c2=O)c1` [Compound 41, 3-(3-benzoylamino-1H-indazol-5-ylamino)-4-(3-methoxybenzylamino)cyclobut-3-ene-1,2-dione], for which the IC50 is 61.5 nM. On to `COc1cccc([C@@H](C)Nc2c(Nc3ccc4[nH]nc(NC(=O)c5ccccc5)c4c3)c(=O)c2=O)c1` [Compound 42, 3-(3-benzoylamino-1H-indazol-5-ylamino)-4-[(R)-1-(3-methoxyphenyl)ethylamino]cyclobut-3-ene-1,2-dione], for which the IC50 turned out to be 10 nM.

Broadly, the IC50 is the concentration that gives 50% inhibition.
